Among the data in ChEMBL document CHEMBL4715868, “Neurotrophic isoindolinones from the fruiting bodies of Hericium erinaceus” (2021) are Activity values, retold here.

Active and inactive are the calls of the source. The calls are words filed in the database; no cut-off is given here.

Assay [1] relates to C6. The experiment in a line: Neurotrophic activity in rat C6 cells assessed as NGF production at 10 to 50 uM incubated for 24 hrs by ELISA. The settings on record: dose 10-50 µM. The format is functional, cell-based.
For assay [2], the system named is C6. The experiment in a line: Upregulation of Syp production in rat C6 cells co-cultured with N2a cells at 10 to 50 uM incubated for 24 hrs followed by cell transfer to N2a cells by Western blot analysis. Particulars: dose 10-50 µM. In kind it is functional, cell-based.
Assay [3] has as its system C6. Put plainly: Upregulation of NGF production in rat C6 cells co-cultured with N2a cells at 10 to 50 uM incubated for 24 hrs followed by cell transfer to N2a cells by Western blot analysis. In kind it is functional, cell-based. Particulars: dose 10-50 µM.
Assay [4] is described as follows: Neurotrophic activity in […] N2a cells assessed as increase in NGF-mediated neurite outgrowth at 25 uM incubated for 24 hrs by cell imaging analysis relative to control. In kind it is functional.
In assay [5] the test system is C6. Put plainly: Upregulation of BDNF production in rat C6 cells co-cultured with N2a cells at 10 to 50 uM incubated for 24 hrs followed by cell transfer to N2a cells by Western blot analysis. Particulars: dose 10-50 µM. In kind it is functional, cell-based.
The nature of assay [6]: Neurotrophic activity in […] N2a cells assessed as increase in NGF-mediated neurite outgrowth at 10 uM incubated for 24 hrs by cell imaging analysis relative to control. The format is functional.

As to `COc1cc2c(c(O)c1C/C=C(\C)CCC=C(C)C)C(=O)N(CCc1ccccc1)C2`, the result in the assay on C6 [1] and in the assay with C6 [3] was Active. In the assay on C6 [2], the outcome was inactive. Moreover, in assay [4], the Activity is given as 116.82%.

With `COc1cc2c(c(O)c1CCO)CN(CCc1ccccc1)C2=O`, the Activity entry is “Dose-dependent effect” in the assay on C6 [1] and 122.82% in assay [4]. In addition, the outcome in the assay on C6 [2] was inactive. Also, the result in the assay with C6 [3] and in the assay with C6 [5] was Active.

In the case of `COc1cc2c(c(O)c1C/C=C(\C)CC/C=C(\C)C(=O)O)COC2=O`, the outcome in the assay with C6 [1], with C6 [3] and in the assay with C6 [5] was Active. Moreover, the outcome in the assay with C6 [2] was inactive.

On to `CC1=C(/C=C/C(C)=C/C=C/C(C)=C/C(=O)O)C(C)(C)CCC1` [TRETINOIN], for which, in assay [6], the Activity is recorded as 112.08%.
